Source: PMC5908784, “Extracellular loops 2 and 3 of the calcitonin receptor selectively modify agonist binding and efficacy” (Biochemical Pharmacology, 2018)
Residue numbers refer to the chain shown, from its start. Read-outs that look alike come from different tables or passages of the source. Where a SMILES comes first, the peptide text is derived from it. Bridges are numbered along the chain shown (N, C = ends).

Legend:
Assay in all cases: IP1 accumulation
Type in all cases: cell-based
hCTR V357A = target: T1, hCTR V357A (Homo sapiens, UniProt P30988, V357A); conditions: mean ± S.E.M.; for Emax: IP1 maximal response, SEM
T1 construct: c-Myc (N); expressed in transfected cells
T1 sequence (P30988 25-474 V357A): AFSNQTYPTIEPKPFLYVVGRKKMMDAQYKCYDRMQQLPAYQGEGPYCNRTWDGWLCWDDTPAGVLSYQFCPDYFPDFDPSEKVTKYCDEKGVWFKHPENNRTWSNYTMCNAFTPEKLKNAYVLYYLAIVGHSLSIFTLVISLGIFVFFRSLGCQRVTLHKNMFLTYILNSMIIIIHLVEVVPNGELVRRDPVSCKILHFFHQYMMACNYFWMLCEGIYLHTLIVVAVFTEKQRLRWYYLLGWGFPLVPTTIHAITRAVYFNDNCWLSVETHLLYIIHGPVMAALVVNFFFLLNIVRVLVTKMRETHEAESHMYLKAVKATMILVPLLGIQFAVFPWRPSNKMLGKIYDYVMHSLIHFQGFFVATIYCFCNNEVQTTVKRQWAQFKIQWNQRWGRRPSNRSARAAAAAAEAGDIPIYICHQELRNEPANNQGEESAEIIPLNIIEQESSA
Method in brief: (§1)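 HTRF IP-One readout of IP1 after 60 min ligand stimulation (LiCl present), cells seeded overnight. Normalized to 100 μM ATP max response. EC50/Emax via 3-parameter logistic curve fit.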

hCTR F359A = target: T2, hCTR F359A (Homo sapiens, UniProt P30988, F359A); conditions: for Emax: read-out: Emax (% WT), SEM
T2 construct: expressed in transfected cells
T2 sequence (P30988 25-474 F359A): T1 sequence (P30988 25-474 V357A) with A333V, F335A
Method in brief: as §1

hCTR V283A = target: T3, hCTR V283A (Homo sapiens, UniProt P30988, V283A); conditions: mean ± S.E.M.; for Emax: IP1 maximal response, SEM
T3 construct: expressed in transfected cells
T3 sequence (P30988 25-474 V283A): T1 sequence (P30988 25-474 V357A) with V259A, A333V
Method in brief: as §1

hCTR P360A = target: T4, hCTR P360A (Homo sapiens, UniProt P30988, P360A); conditions: mean ± S.E.M.; for Emax: IP1 maximal response, SEM
T4 construct: expressed in transfected cells
T4 sequence (P30988 25-474 P360A): T1 sequence (P30988 25-474 V357A) with A333V, P336A
Method in brief: as §1

hCTR S364A = target: T5, hCTR S364A (Homo sapiens, UniProt P30988, S364A); conditions: mean ± S.E.M.; for Emax: IP1 maximal response, SEM
T5 construct: c-Myc (N); expressed in transfected cells
T5 sequence (P30988 25-474 S364A): T1 sequence (P30988 25-474 V357A) with A333V, S340A
Method in brief: as §1

[1] = IP1, CV1-FlpIn cells, 60 min, LiCl

CC[C@H](C)[C@H](NC(=O)[C@H](C)NC(=O)[C@@H](NC(=O)[C@H](CCC(N)=O)NC(=O)[C@@H]1CCCN1C(=O)[C@H](Cc1ccccc1)NC(=O)[C@@H](NC(=O)[C@H](Cc1c[nH]cn1)NC(=O)[C@H](Cc1ccccc1)NC(=O)[C@H](CCCCN)NC(=O)[C@H](CC(N)=O)NC(=O)[C@H](Cc1ccccc1)NC(=O)[C@H](CC(=O)O)NC(=O)[C@H](CCC(N)=O)NC(=O)[C@@H](NC(=O)[C@H](Cc1ccc(O)cc1)NC(=O)[C@@H](NC(=O)CNC(=O)[C@H](CC(C)C)NC(=O)[C@H](CCSC)NC(=O)[C@@H]1CSSC[C@H](N)C(=O)NCC(=O)N[C@@H](CC(N)=O)C(=O)N[C@@H](CC(C)C)C(=O)N[C@@H](CO)C(=O)N[C@@H]([C@@H](C)O)C(=O)N1)[C@@H](C)O)[C@@H](C)O)[C@@H](C)O)[C@@H](C)O)C(=O)NCC(=O)N[C@H](C(=O)NCC(=O)N[C@@H](C)C(=O)N1CCC[C@H]1C(N)=O)C(C)C [hCT]
Emax (hCTR V357A): 50 ± 4%
Emax (hCTR F359A): 101 ± 9%
Emax (hCTR V283A): 67 ± 6%
Emax (hCTR P360A): 95 ± 8%
Emax (hCTR S364A): 93 ± 8%

CC(C)C[C@H](NC(=O)[C@H](CCCCN)NC(=O)CNC(=O)[C@H](CC(C)C)NC(=O)[C@@H](NC(=O)[C@@H]1CSSC[C@H](N)C(=O)N[C@@H](CO)C(=O)N[C@@H](CC(N)=O)C(=O)N[C@@H](CC(C)C)C(=O)N[C@@H](CO)C(=O)N[C@@H]([C@@H](C)O)C(=O)N1)C(C)C)C(=O)N[C@@H](CO)C(=O)N[C@@H](CCC(N)=O)C(=O)N[C@@H](CCC(=O)O)C(=O)N[C@@H](CC(C)C)C(=O)N[C@@H](Cc1c[nH]cn1)C(=O)N[C@@H](CCCCN)C(=O)N[C@@H](CC(C)C)C(=O)N[C@@H](CCC(N)=O)C(=O)N[C@H](C(=O)N[C@@H](Cc1ccc(O)cc1)C(=O)N1CCC[C@H]1C(=O)N[C@@H](CCCNC(=N)N)C(=O)N[C@H](C(=O)N[C@@H](CC(N)=O)C(=O)N[C@H](C(=O)NCC(=O)N[C@@H](CO)C(=O)NCC(=O)N[C@H](C(=O)N1CCC[C@H]1C(N)=O)[C@@H](C)O)[C@@H](C)O)[C@@H](C)O)[C@@H](C)O [sCT]
Emax (hCTR V357A): 39 ± 3%
Emax (hCTR F359A): 125 ± 6%
Emax (hCTR V283A): 115 ± 6%
Emax (hCTR P360A): 144 ± 5%
Emax (hCTR S364A): 87 ± 6%

CSCC[C@H](NC(=O)CNC(=O)[C@H](CO)NC(=O)[C@H](Cc1ccccc1)NC(=O)[C@H](CCCNC(=N)N)NC(=O)[C@H](Cc1c[nH]cn1)NC(=O)[C@H](Cc1ccccc1)NC(=O)[C@H](CC(N)=O)NC(=O)[C@H](CC(N)=O)NC(=O)[C@H](CC(C)C)NC(=O)[C@H](CC(N)=O)NC(=O)[C@H](CCCNC(=N)N)NC(=O)[C@H](Cc1c[nH]c2ccccc12)NC(=O)[C@H](Cc1ccc(O)cc1)NC(=O)[C@H](C)NC(=O)[C@H](CO)NC(=O)[C@H](CC(C)C)NC(=O)[C@@H](NC(=O)[C@@H]1CSSC[C@H](N)C(=O)N[C@@H](CO)C(=O)N[C@@H](CC(N)=O)C(=O)N[C@@H](CC(C)C)C(=O)N[C@@H](CO)C(=O)N[C@@H]([C@@H](C)O)C(=O)N1)C(C)C)C(=O)NCC(=O)N[C@@H](Cc1ccccc1)C(=O)NCC(=O)N1CCC[C@H]1C(=O)N[C@@H](CCC(=O)O)C(=O)N[C@H](C(=O)N1CCC[C@H]1C(N)=O)[C@@H](C)O [pCT] (H-CSNLSTCVLSAYWRNLNNFHRFSGMGFGPETP-NH2; disulfide 1-7)
EC50 (hCTR V357A; [1]): 15.5 nM
Emax (hCTR V357A): 48 ± 4%
EC50 (hCTR F359A; F359A, IP1, CV1-FlpIn cells, 60 min, LiCl, mean ± S.E.M.): 13.2 nM
Emax (hCTR F359A; F359A, IP1 maximal response, mean ± S.E.M.): 77 ± 6%
EC50 (hCTR V283A; [1]): 6.17 nM
Emax (hCTR V283A): 100 ± 5%
EC50 (hCTR P360A; [1]): 85.1 nM
Emax (hCTR P360A): 107 ± 12%
EC50 (hCTR S364A; [1]): 6.92 nM
Emax (hCTR S364A): 93 ± 6%
